Source: ChEMBL document CHEMBL3046964, “Synthesis of novel building blocks of 1H-pyrrolo[3,4-b]quinolin-3(2H)-one and evaluation of their antitumor activity” (Med Chem Res, 2013)
pIC50: −log10 of the molar value.

Assays:
A549 = experiment: Cytotoxicity against Homo sapiens (human) A549 cells assessed as growth inhibition after 48 hr by MTT assay; type: functional, cell-based; details: A549, 48 h
SK-N-SH = experiment: Cytotoxicity against Homo sapiens (human) SK-N-SH cells assessed as growth inhibition after 48 hr by MTT assay; type: functional, cell-based

| SMILES | pIC50 (A549) | pIC50 (SK-N-SH) |
| --- | --- | --- |
| COc1ccc(N2CCN(C(=O)Cc3ccc(CCCN4Cc5cc6ccccc6nc5C4=O)cc3)CC2)cc1 | 4.16 | 4.31 |
| O=C(Cc1ccc(CCCN2Cc3cc4ccccc4nc3C2=O)cc1)N1CCN(c2ccc([N+](=O)[O-])cc2)CC1 | – | 4.40 |
| O=C(Cc1ccc(/C=C/CN2Cc3cc4ccccc4nc3C2=O)cc1)N1CCCCC1 | 4.17 | 4.42 |
| O=C(Cc1ccc(/C=C/CN2Cc3cc4ccccc4nc3C2=O)cc1)N1CCN(c2ccccc2)CC1 | 4.27 | 4.28 |
| O=C(Cc1ccc(/C=C/CN2Cc3cc4ccccc4nc3C2=O)cc1)N1CCOCC1 | 4.34 | 5.06 |
| O=C(Cc1ccc(/C=C/CN2Cc3cc4ccccc4nc3C2=O)cc1)NCCO | – | 4.38 |
| O=C(Cc1ccc(/C=C/CN2Cc3cc4ccccc4nc3C2=O)cc1)N1CCCC1 | – | 4.24 |
| COc1ccc(N2CCN(C(=O)Cc3ccc(/C=C/CN4Cc5cc6ccccc6nc5C4=O)cc3)CC2)cc1 | – | 4.25 |
| O=C(Cc1ccc(CCCN2Cc3cc4ccccc4nc3C2=O)cc1)N1CCN(c2ccccc2)CC1 | 4.18 | 4.38 |
| O=C(O)Cc1ccc(/C=C/CN2Cc3cc4ccccc4nc3C2=O)cc1 | – | 4.25 |
| COc1cccc2c1C(=O)c1c(O)c3c(c(O)c1C2=O)C[C@@](O)(C(=O)CO)C[C@@H]3O[C@H]1C[C@H](N)[C@H](O)[C@H](C)O1 [DOXORUBICIN] | 4.61 | – |
| CC(C)N(C(=O)Cc1ccc(/C=C/CN2Cc3cc4ccccc4nc3C2=O)cc1)C(C)C | 4.15 | 4.36 |
| O=c1c2ccccc2nc2n1Cc1cc3ccccc3nc1-2 [LUOTONIN A] | 4.21 | 4.21 |
| O=C(Cc1ccc(/C=C/CN2Cc3cc4ccccc4nc3C2=O)cc1)N1CCN(c2ccc([N+](=O)[O-])cc2)CC1 | 4.36 | 4.25 |
